What all share (test): kinase binding screen (kinase-tagged T7 phage, qPCR), % Ctrl
On the technique in general: In qPCR the cycle at which signal appears reflects the starting amount.

One assay deals with AAK1 (Homo sapiens, UniProt Q2M2I8). As for the experimental part: (§1) Percentage kinase inhibition at a set concentration was performed by methods well known in the prior art (Fabian, M. A. et al. Nat. Biotechnol. 2005, 23, 329; Karaman et al. (2008) Nat. Biotechnol. […], 26, 127). Briefly, kinase-tagged T7 phage strains were grown in parallel in 24-well blocks in an E. coli host derived from the BL21 strain. E. coli were grown to log-phase and infected with T7 phage from a frozen stock (multiplicity of infection=0.4) and incubated with shaking at 32° C. until lysis (90-150 minutes). The lysates were centrifuged (6,000×g) and filtered (0.2 μm) to remove cell debris. […] The liganded beads were blocked with excess biotin and washed with blocking buffer (SeaBlock (Pierce); 1% BSA, 0.05% Tween 20, 1 mM DTT) to remove unbound ligand and to reduce non-specific phage binding. […] Test compounds were prepared as 40× stocks in 100% DMSO and directly diluted into the assay. All reactions were performed in polypropylene 384-well plates in a final volume of 0.04 mL. […] The kinase concentration in the eluates was measured by qPCR.
AAK1, sequence (Q2M2I8 whole entry): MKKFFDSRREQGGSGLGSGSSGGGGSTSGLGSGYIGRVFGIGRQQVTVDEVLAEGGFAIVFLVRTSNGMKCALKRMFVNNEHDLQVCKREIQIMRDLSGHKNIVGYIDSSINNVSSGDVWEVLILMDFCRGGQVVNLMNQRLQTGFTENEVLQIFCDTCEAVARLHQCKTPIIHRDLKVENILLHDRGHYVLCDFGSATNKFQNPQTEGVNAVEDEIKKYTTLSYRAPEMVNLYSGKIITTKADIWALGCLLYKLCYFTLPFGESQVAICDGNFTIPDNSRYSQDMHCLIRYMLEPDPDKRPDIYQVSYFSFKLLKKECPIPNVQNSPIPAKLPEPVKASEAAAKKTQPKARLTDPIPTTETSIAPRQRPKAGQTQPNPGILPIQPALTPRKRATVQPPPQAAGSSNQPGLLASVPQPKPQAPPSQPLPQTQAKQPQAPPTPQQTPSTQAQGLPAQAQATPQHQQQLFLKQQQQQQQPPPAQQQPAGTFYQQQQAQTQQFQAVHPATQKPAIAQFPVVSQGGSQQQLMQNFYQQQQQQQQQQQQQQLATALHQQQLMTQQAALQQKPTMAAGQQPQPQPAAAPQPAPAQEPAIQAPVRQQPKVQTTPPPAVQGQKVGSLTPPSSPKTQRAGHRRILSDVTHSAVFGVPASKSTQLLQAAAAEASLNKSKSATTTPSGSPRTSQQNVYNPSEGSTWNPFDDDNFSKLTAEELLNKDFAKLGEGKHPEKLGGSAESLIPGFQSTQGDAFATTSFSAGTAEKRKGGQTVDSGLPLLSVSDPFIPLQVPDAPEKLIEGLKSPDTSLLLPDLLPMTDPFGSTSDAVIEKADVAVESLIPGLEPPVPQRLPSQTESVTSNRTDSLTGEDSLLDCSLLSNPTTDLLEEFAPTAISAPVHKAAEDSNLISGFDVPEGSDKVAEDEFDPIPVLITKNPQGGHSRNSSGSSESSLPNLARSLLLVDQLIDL

For the next assay, the target named is BMPR1B (Homo sapiens, UniProt O00238). The method, then: as §1
BMPR1B, sequence (O00238 14-502): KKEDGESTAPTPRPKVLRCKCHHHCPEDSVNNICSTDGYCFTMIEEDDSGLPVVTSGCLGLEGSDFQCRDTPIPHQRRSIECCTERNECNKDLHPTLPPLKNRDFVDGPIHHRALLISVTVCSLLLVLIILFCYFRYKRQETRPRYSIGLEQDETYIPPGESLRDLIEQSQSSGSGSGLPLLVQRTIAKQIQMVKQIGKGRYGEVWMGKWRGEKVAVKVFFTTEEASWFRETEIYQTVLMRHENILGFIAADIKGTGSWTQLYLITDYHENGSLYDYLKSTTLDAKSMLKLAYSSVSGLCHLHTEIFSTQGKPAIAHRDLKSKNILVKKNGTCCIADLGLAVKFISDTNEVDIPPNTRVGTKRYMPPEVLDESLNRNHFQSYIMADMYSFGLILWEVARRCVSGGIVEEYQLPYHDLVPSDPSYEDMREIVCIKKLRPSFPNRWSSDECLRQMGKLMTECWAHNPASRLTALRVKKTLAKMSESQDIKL
Another assay addresses PIM2 (Homo sapiens, UniProt Q9P1W9). As for the experimental part: as §1
The next assay addresses ROCK2 (Homo sapiens, UniProt O75116). The method, then: as §1
The target of assay [1] is TYK2(JH2domain-pseudokinase) (Homo sapiens, UniProt P29597). The method, then: as §1
TYK2(JH2domain-pseudokinase), sequence (P29597 589-875 limits assumed, species assumed): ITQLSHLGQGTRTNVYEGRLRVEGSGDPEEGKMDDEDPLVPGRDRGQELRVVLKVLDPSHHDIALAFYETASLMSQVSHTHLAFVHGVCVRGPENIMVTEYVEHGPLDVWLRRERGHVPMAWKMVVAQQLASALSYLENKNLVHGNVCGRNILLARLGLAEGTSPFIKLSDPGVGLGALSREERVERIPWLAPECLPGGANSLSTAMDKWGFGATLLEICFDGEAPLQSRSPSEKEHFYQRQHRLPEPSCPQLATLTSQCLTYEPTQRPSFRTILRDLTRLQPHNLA
For another assay, the target named is T1, ULK1 (Homo sapiens, UniProt O75385).
T1 sequence (O75385 1-1050): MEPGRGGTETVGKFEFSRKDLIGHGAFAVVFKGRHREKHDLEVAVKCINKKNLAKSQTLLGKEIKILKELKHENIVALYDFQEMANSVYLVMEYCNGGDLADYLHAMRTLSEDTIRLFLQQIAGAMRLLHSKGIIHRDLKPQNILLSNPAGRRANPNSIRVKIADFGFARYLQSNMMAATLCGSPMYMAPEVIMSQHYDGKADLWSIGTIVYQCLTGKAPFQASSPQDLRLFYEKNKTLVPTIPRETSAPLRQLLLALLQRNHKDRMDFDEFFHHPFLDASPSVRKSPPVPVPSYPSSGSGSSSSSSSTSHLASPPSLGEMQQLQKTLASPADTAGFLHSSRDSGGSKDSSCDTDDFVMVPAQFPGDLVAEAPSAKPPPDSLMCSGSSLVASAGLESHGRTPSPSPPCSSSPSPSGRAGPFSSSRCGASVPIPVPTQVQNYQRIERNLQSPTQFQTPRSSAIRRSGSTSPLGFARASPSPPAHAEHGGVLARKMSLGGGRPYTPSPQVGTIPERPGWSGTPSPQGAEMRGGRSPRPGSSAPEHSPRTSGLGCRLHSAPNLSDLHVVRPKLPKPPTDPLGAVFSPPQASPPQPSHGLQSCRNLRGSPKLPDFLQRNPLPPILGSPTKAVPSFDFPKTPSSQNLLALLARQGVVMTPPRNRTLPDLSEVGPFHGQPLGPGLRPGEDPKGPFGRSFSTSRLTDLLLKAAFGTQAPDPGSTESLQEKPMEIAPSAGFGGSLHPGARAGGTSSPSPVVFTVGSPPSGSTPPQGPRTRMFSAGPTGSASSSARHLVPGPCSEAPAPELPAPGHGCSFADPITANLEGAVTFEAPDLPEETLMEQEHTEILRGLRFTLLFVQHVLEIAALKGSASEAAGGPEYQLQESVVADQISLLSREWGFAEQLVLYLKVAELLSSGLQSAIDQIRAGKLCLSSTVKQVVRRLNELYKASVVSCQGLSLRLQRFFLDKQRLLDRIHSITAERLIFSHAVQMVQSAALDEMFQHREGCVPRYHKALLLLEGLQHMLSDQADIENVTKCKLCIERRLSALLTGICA
As for the experimental part:
as §1

Another assay has as its target T2, ULK3 (Homo sapiens, UniProt Q6PHR2).
T2 sequence (Q6PHR2 1-472): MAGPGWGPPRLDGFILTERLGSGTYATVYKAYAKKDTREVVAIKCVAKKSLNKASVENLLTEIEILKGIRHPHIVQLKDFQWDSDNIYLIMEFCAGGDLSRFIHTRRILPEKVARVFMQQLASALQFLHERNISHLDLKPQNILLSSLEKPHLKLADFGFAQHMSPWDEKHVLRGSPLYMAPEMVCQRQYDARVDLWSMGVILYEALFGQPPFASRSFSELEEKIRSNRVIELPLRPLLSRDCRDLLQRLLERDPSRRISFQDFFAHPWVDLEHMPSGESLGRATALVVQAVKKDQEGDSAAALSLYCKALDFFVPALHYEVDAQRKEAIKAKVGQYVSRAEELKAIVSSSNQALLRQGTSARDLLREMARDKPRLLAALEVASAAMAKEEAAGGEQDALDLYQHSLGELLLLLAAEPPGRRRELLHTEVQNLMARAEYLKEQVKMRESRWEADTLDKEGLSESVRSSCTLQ
As for the experimental part: as §1

The values below come from US20110152313A1 (MACQUARIE UNIVERSITY, priority 2008, published 2011).

Broadly, the remaining activity is what remains of the control signal, in per cent. Read a low remaining activity as little activity left.

ROCK2, sequence (O75116 whole entry, species assumed): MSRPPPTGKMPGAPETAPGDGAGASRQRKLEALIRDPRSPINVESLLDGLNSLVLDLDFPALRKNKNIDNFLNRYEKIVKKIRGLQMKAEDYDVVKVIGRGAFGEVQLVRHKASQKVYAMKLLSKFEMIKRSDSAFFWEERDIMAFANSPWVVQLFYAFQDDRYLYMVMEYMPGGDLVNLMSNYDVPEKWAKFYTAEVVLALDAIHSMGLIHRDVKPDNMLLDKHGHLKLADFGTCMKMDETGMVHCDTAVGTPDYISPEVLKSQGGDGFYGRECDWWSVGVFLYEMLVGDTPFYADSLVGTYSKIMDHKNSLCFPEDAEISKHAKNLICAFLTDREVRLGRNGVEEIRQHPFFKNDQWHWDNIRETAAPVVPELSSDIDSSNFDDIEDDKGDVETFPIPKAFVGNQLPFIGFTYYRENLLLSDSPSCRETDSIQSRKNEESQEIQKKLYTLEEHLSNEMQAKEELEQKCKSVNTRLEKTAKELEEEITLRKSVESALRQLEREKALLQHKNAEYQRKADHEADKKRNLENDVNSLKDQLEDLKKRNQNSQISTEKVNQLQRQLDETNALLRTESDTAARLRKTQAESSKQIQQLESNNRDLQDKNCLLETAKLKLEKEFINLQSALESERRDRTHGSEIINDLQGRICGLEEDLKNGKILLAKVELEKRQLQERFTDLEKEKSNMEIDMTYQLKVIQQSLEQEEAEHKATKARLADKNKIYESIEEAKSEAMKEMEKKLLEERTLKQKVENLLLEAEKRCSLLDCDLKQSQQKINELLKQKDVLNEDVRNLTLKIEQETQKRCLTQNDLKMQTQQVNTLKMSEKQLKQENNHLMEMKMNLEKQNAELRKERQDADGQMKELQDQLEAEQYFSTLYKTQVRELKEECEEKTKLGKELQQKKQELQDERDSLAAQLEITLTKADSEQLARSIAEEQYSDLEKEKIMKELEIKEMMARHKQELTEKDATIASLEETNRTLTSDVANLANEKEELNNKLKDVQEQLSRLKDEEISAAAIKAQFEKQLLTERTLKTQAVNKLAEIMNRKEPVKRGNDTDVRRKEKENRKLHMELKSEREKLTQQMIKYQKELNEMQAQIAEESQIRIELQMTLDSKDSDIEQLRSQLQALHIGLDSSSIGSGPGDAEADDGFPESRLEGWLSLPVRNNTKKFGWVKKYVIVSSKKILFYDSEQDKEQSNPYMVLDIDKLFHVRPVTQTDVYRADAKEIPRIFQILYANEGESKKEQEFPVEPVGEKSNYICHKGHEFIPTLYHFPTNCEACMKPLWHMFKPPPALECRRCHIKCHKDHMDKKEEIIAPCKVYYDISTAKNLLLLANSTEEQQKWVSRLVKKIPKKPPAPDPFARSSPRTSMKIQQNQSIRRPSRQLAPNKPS
PIM2, sequence (Q9P1W9 whole entry, species assumed): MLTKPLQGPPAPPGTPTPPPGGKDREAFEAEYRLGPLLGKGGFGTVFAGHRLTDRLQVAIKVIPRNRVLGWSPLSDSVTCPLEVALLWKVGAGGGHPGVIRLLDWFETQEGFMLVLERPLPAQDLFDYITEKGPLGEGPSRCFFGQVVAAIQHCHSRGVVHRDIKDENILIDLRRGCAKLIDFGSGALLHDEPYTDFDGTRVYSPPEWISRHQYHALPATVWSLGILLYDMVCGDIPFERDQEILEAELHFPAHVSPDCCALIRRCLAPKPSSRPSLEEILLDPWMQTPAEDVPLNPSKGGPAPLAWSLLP

With `Nc1nc2c(-c3cc(Br)c(Br)[nH]3)nccc2[nH]1` [Ageladine A, ageladine A, reference compound], the remaining activity at 1 µM on AAK1 is 90%; on BMPR1B, 100%; at PIM2, 56%; on ROCK2, 65%; in assay [1], 23%; on ULK1, 62%. This compound also returned a remaining activity at 1 µM on ULK3 of 82%. In addition, the remaining activity at 10 µM on AAK1 (10 μM) was 83%; at BMPR1B (10 μM), 78%; at PIM2 (10 μM) it was 21%; at ROCK2 (10 μM) it was 38%; in assay [1] (10 μM), 2%; at ULK1 (10 μM), 20%. The remaining activity at 10 µM at ULK3 (10 μM) stood at 81%.
Regarding `Nc1nc2c(-c3ccccn3)nccc2[nH]1` [drawing 35, 4-(pyrid-2-yl)-1H-imidazo[4,5-c]pyridin-2-amine], the remaining activity at 1 µM on AAK1 stood at 27%; on BMPR1B, 85%; on PIM2 it was 100%; at ROCK2, 45%; in assay [1], 41%; at ULK1 it was 33%. This compound also came in with a remaining activity at 1 µM at ULK3 of 51%.
For the compound `Nc1nc2c(-c3cnc4ccccc4c3)nccc2[nH]1` [drawing 36, 4-(quinolin-3-yl)-1H-imidazo[4,5-c]pyridin-2-amine], the remaining activity at 1 µM at AAK1 is 83%; on BMPR1B, 0%; on PIM2, 100%; at ROCK2, 100%; in assay [1], 25%; at ULK1 it was 91%. The compound also registered a remaining activity at 1 µM on ULK3 of 87%.
